# Where two headings read alike, the source gives them in different places.
# Experiments:
# [1] = system: B. subtilis DSM 29870; assay: MIC of antibiotics by broth micro dilution (CLSI M07-A9); conditions: Bacillus subtilis
# [2] = system: S. aureus ATCC 29213; assay: MIC of antibiotics by broth micro dilution (CLSI M07-A9), control strain; conditions: Staphylococcus aureus
structure (smiles),measurement,setting,value
CN[C@H](CC(C)C)C(=O)N[C@H]1C(=O)N[C@@H](CC(N)=O)C(=O)N[C@H]2C(=O)N[C@H]3C(=O)N[C@H](C(=O)N[C@H](C(=O)O)c4cc(O)cc(O)c4-c4cc3ccc4O)[C@H](O)c3ccc(c(Cl)c3)Oc3cc2cc(c3O[C@@H]2O[C@H](CO)[C@@H](O)[C@H](O)[C@H]2O[C@H]2C[C@](C)(N)[C@H](O)[C@H](C)O2)Oc2ccc(cc2Cl)[C@H]1O [Vancomycin],MIC,"[1]; DSM29870, read-out: MIC 1",0.25 µg/mL
same,MIC,"[1]; DSM29870, read-out: MIC 2",0.25 µg/mL
same,MIC,"[1]; DSM29870, read-out: MIC 3",0.25 µg/mL
same,MIC,"[2]; ATCC29213, read-out: MIC 1",0.5 µg/mL
same,MIC,"[2]; ATCC29213, read-out: MIC 2",1 µg/mL
same,MIC,"[2]; ATCC29213, read-out: MIC 3",1 µg/mL
